Converted amounts (≈) assume the structure as drawn.
Legend:
[1] = system: Cryptococcus bacillisporus; experiment: checkerboard drug interaction (FICI, MICc); format: cell-based;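 note: interaction of antifungals with FPPS inhibitors assessed by a simplified diagonal checkerboard screen, with FICI computed under the Loewe additivity model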
Method: (§1) Drug interactions between antifungals and FPPS inhibitors were investigated using a simplified checkerboard diagonal screening method ([45]). […] FICIs were determined according to the Loewe additivity model ([17]).

Aspergillus felis = experiment: checkerboard drug interaction (FICI, MICc); format: cell-based;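 note: simplified diagonal checkerboard screen pairing antifungals with FPPS inhibitors, FICI calculated under the Loewe additivity model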
Method: as §1

Paraphyton cookei = experiment: MIC broth microdilution (CLSI); format: cell-based; conditions: Paraphyton cookei R-639
Method: (§2) Antifungal susceptibility was determined by broth microdilution according to the CLSI guidelines described in M27-Ed4 ([16]).

Aspergillus terreus = experiment: MIC broth microdilution (CLSI); format: cell-based; conditions: Aspergillus terreus 75-16-089-2500
Method: as §2

Candida tropicalis = experiment: MIC broth microdilution (CLSI); format: cell-based; conditions: Candida tropicalis M230640
Method: as §2

Epidermophyton floccosum = experiment: MIC broth microdilution (CLSI); format: cell-based; conditions: Epidermophyon floccosum R-113
Method: as §2

Cryptococcus gattii [2] = experiment: MIC broth microdilution (CLSI); format: cell-based; conditions: Cryptococcus gattii PNG27
Method: as §2

Candida auris = experiment: checkerboard drug interaction (FICI, MICc); format: cell-based;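 note: simplified diagonal checkerboard screen pairing antifungals with FPPS inhibitors, with FICI computed under the Loewe additivity model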
Method: as §1

[3] = system: Aspergillus frankstonensis; experiment: MIC broth microdilution (CLSI); format: cell-based; conditions: Aspergillus frankstonensis DTO 341-F3
Method: as §2

[4] = system: Trichophyton interdigitale; experiment: checkerboard drug interaction (FICI, MICc);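 note: simplified diagonal checkerboard screen pairing antifungals with FPPS inhibitors, FICI values calculated under the Loewe additivity model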
Method: as §1

Microsporum canis = experiment: MIC broth microdilution (CLSI); conditions: Microsporum canis R-232
Method: as §2

Aspergillus udagawae = experiment: checkerboard drug interaction (FICI, MICc); format: cell-based;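 note: simplified diagonal checkerboard screen pairing antifungals with FPPS inhibitors, FICI calculated using the Loewe additivity model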
Method: as §1

Nannizzia nana [5] = experiment: checkerboard drug interaction (FICI, MICc); format: cell-based;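 note: simplified diagonal checkerboard screen pairing antifungals with FPPS inhibitors, FICI calculated under the Loewe additivity model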
Method: as §1

Rhizopus oryzae = experiment: MIC broth microdilution (CLSI); format: cell-based; conditions: Rhizopus oryzae 04-14-364-1703
Method: as §2

Lomentospora prolificans = experiment: MIC broth microdilution (CLSI); format: cell-based; conditions: Lomentospora prolificans 80-16-101-2445
Method: as §2

[6] = system: Aspergillus frankstonensis; experiment: checkerboard drug interaction (FICI, MICc);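 note: simplified diagonal checkerboard screen pairing antifungals with FPPS inhibitors, FICI calculated using the Loewe additivity model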
Method: as §1

Cryptococcus gattii [7] = experiment: checkerboard drug interaction (FICI, MICc); format: cell-based;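 note: simplified diagonal checkerboard screen pairing antifungals with FPPS inhibitors, FICI computed under the Loewe additivity model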
Method: as §1

Nannizzia nana [8] = experiment: MIC broth microdilution (CLSI); format: cell-based; conditions: Nannizzia nana R-133
Method: as §2

Candida parapsilosis [9] = experiment: MIC broth microdilution (CLSI); format: cell-based; conditions: Candida parapsilosis ATCC 22018
Method: Antifungal susceptibility was determined by broth microdilution according to the CLSI guidelines described in M27-Ed4 ([16]). […] MFC was determined by back-plating drug-treated cultures from MIC broths onto SDA plates. The MFC was defined as the lowest concentration from which no colonies could be cultured.

Candida parapsilosis [10] = experiment: checkerboard drug interaction (FICI, MICc); format: cell-based;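 note: simplified diagonal checkerboard screen pairing antifungals with FPPS inhibitors, with FICI computed under the Loewe additivity model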
Method: as §1

## O=P(O)(O)C(O)(Cn1ccnc1)P(=O)(O)O [ZOL, zoledronate]
[1]; 5FC:ZOL
  FICI: 1.03
[1]; AMB:ZOL
  FICI: 6
[1]; CAS:ZOL
  FICI: 1.13
[1]; FLC:ZOL
  FICI: 0.38
[1]; ITR:ZOL
  FICI: 1.29
[1]; KET:ZOL
  FICI: 1.02
[1]; VOR:ZOL
  FICI: 2.33
[1]; ZOL with 5FC
  bisphosphonate MICc: 128
[1]; ZOL with AMB
  bisphosphonate MICc: 256
[1]; ZOL with CAS
  bisphosphonate MICc: 16
[1]; ZOL with FLC
  bisphosphonate MICc: 32
[1]; ZOL with ITR
  bisphosphonate MICc: 32
[1]; ZOL with KET
  bisphosphonate MICc: 2
[1]; ZOL with VOR
  bisphosphonate MICc: 32
Aspergillus felis; 5FC:ZOL
  FICI: 1.5
Aspergillus felis; AMB:ZOL
  FICI: 2.5
Aspergillus felis; CAS:ZOL
  FICI: 2.5
Aspergillus felis; FLC:ZOL
  FICI: 1.03
Aspergillus felis; ITR:ZOL
  FICI: 0.52
Aspergillus felis; KET:ZOL
  FICI: 0.63
Aspergillus felis; VOR:ZOL
  FICI: 0.38
Aspergillus felis; ZOL with 5FC
  bisphosphonate MICc: 512
Aspergillus felis; ZOL with AMB
  bisphosphonate MICc: 256
Aspergillus felis; ZOL with CAS
  bisphosphonate MICc: 256
Aspergillus felis; ZOL with FLC
  bisphosphonate MICc: 16
Aspergillus felis; ZOL with ITR
  bisphosphonate MICc: 8
Aspergillus felis; ZOL with KET
  bisphosphonate MICc: 64
Aspergillus felis; ZOL with VOR
  bisphosphonate MICc: 64
Paraphyton cookei
  MIC / MEC: 128 mg/L (≈ 470 µM)
Aspergillus terreus
  MIC / MEC: 128 mg/L (≈ 470 µM)
Candida tropicalis
  MIC / MEC: 128 mg/L (≈ 470 µM)
Epidermophyton floccosum
  MIC / MEC: 64 mg/L (≈ 235 µM)
Cryptococcus gattii [2]
  MIC / MEC: 128 mg/L (≈ 470 µM)
Candida auris; 5FC:ZOL
  FICI: 1.5
Candida auris; AMB:ZOL
  FICI: 1.13
Candida auris; CAS:ZOL
  FICI: 1.25
Candida auris; FLC:ZOL
  FICI: 0.38
Candida auris; ITR:ZOL
  FICI: 0.63
Candida auris; KET:ZOL
  FICI: 0.5
Candida auris; VOR:ZOL
  FICI: 0.63
Candida auris; ZOL with 5FC
  bisphosphonate MICc: 128
Candida auris; ZOL with AMB
  bisphosphonate MICc: 16
Candida auris; ZOL with CAS
  bisphosphonate MICc: 32
Candida auris; ZOL with FLC
  bisphosphonate MICc: 32
Candida auris; ZOL with ITR
  bisphosphonate MICc: 16
Candida auris; ZOL with KET
  bisphosphonate MICc: 32
Candida auris; ZOL with VOR
  bisphosphonate MICc: 16
[3]
  MIC / MEC: 128 mg/L (≈ 470 µM)
[4]; 5FC:ZOL
  FICI: 2
[4]; AMB:ZOL
  FICI: 3
[4]; CAS:ZOL
  FICI: 1.25
[4]; FLC:ZOL
  FICI: 0.5
[4]; ITR:ZOL
  FICI: 0.27
[4]; KET:ZOL
  FICI: 0.5
[4]; VOR:ZOL
  FICI: 0.38
[4]; ZOL with 5FC
  bisphosphonate MICc: 256
[4]; ZOL with AMB
  bisphosphonate MICc: 256
[4]; ZOL with CAS
  bisphosphonate MICc: 64
[4]; ZOL with FLC
  bisphosphonate MICc: 64
[4]; ZOL with ITR
  bisphosphonate MICc: 4
[4]; ZOL with KET
  bisphosphonate MICc: 64
[4]; ZOL with VOR
  bisphosphonate MICc: 32
Microsporum canis
  MIC / MEC: 64 mg/L (≈ 235 µM)
Aspergillus udagawae; 5FC:ZOL
  FICI: ≥4
Aspergillus udagawae; AMB:ZOL
  FICI: 0.63
Aspergillus udagawae; CAS:ZOL
  FICI: 2
Aspergillus udagawae; FLC:ZOL
  FICI: 1.01
Aspergillus udagawae; ITR:ZOL
  FICI: 1
Aspergillus udagawae; KET:ZOL
  FICI: 0.75
Aspergillus udagawae; VOR:ZOL
  FICI: 1
Aspergillus udagawae; ZOL with 5FC
  bisphosphonate MICc: 512
Aspergillus udagawae; ZOL with AMB
  bisphosphonate MICc: 128
Aspergillus udagawae; ZOL with CAS
  bisphosphonate MICc: 256
Aspergillus udagawae; ZOL with FLC
  bisphosphonate MICc: 2
Aspergillus udagawae; ZOL with ITR
  bisphosphonate MICc: 128
Aspergillus udagawae; ZOL with KET
  bisphosphonate MICc: 128
Aspergillus udagawae; ZOL with VOR
  bisphosphonate MICc: 128
Nannizzia nana [5]; 5FC:ZOL
  FICI: ≥4
Nannizzia nana [5]; AMB:ZOL
  FICI: 1
Nannizzia nana [5]; CAS:ZOL
  FICI: 0.75
Nannizzia nana [5]; FLC:ZOL
  FICI: 0.5
Nannizzia nana [5]; ITR:ZOL
  FICI: 0.65
Nannizzia nana [5]; KET:ZOL
  FICI: 0.51
Nannizzia nana [5]; VOR:ZOL
  FICI: 1.1
Nannizzia nana [5]; ZOL with 5FC
  bisphosphonate MICc: 256
Nannizzia nana [5]; ZOL with AMB
  bisphosphonate MICc: 64
Nannizzia nana [5]; ZOL with CAS
  bisphosphonate MICc: 64
Nannizzia nana [5]; ZOL with FLC
  bisphosphonate MICc: 32
Nannizzia nana [5]; ZOL with ITR
  bisphosphonate MICc: 16
Nannizzia nana [5]; ZOL with KET
  bisphosphonate MICc: 32
Nannizzia nana [5]; ZOL with VOR
  bisphosphonate MICc: 8
Rhizopus oryzae
  MIC / MEC: >256 mg/L
Lomentospora prolificans
  MIC / MEC: >256 mg/L
[6]; 5FC:ZOL
  FICI: ≥4
[6]; AMB:ZOL
  FICI: 2
[6]; CAS:ZOL
  FICI: ≥4
[6]; FLC:ZOL
  FICI: 0.56
[6]; ITR:ZOL
  FICI: 1.25
[6]; KET:ZOL
  FICI: 1
[6]; VOR:ZOL
  FICI: 1.13
[6]; ZOL with 5FC
  bisphosphonate MICc: 256
[6]; ZOL with AMB
  bisphosphonate MICc: 128
[6]; ZOL with CAS
  bisphosphonate MICc: 256
[6]; ZOL with FLC
  bisphosphonate MICc: 8
[6]; ZOL with ITR
  bisphosphonate MICc: 32
[6]; ZOL with KET
  bisphosphonate MICc: 64
[6]; ZOL with VOR
  bisphosphonate MICc: 16
Cryptococcus gattii [7]; 5FC:ZOL
  FICI: 1.25
Cryptococcus gattii [7]; AMB:ZOL
  FICI: 1.5
Cryptococcus gattii [7]; CAS:ZOL
  FICI: ≥4
Cryptococcus gattii [7]; FLC:ZOL
  FICI: 0.38
Cryptococcus gattii [7]; ITR:ZOL
  FICI: 0.63
Cryptococcus gattii [7]; KET:ZOL
  FICI: 1.03
Cryptococcus gattii [7]; VOR:ZOL
  FICI: 1.25
Cryptococcus gattii [7]; ZOL with 5FC
  bisphosphonate MICc: 128
Cryptococcus gattii [7]; ZOL with AMB
  bisphosphonate MICc: 64
Cryptococcus gattii [7]; ZOL with CAS
  bisphosphonate MICc: 256
Cryptococcus gattii [7]; ZOL with FLC
  bisphosphonate MICc: 32
Cryptococcus gattii [7]; ZOL with ITR
  bisphosphonate MICc: 16
Cryptococcus gattii [7]; ZOL with KET
  bisphosphonate MICc: 4
Cryptococcus gattii [7]; ZOL with VOR
  bisphosphonate MICc: 32
Nannizzia nana [8]
  MIC / MEC: 128 mg/L (≈ 470 µM)
Candida parapsilosis [9]
  MIC / MEC: 128 mg/L (≈ 470 µM)
Candida parapsilosis [10]; 5FC:ZOL
  FICI: 1
Candida parapsilosis [10]; AMB:ZOL
  FICI: 1.5
Candida parapsilosis [10]; CAS:ZOL
  FICI: 0.75
Candida parapsilosis [10]; FLC:ZOL
  FICI: 0.38
Candida parapsilosis [10]; ITR:ZOL
  FICI: 0.5

Reference: article PMC12892976, “Alkylation-based optimization of antifungal FPPS inhibitors yields a potent, broad-spectrum lipophilic zoledronate derivative” (mBio, 2025)
